Measured values reported in patent US8598145B2, “Mitochondrially delivered anti-cancer compounds” (priority 2008, dated 2013).
Where two headings read alike, the source gives them in different places.

Columns and labels:
[1] = tested on: EAhy926 cells; settings: level taken from Dong et al, Cancer Res 2007; cited from earlier work
[2] = cited from earlier work
[3] = tested on: MS cells; assay: ROS production by flow cytometry, mammosphere cells (FIG. 8); format: cell-based, human; settings: 3 h; α-TOS 50 μM, MitoVES homologues 5 μM
Experimental: Adherent MCF7 cells and the corresponding mammosphere cells (MS) were cultured and assessed for morphological changes by microscopy (A) and for expression levels of markers as indicators of “sternness” by RT-PCR (B) and flow cytometry (C), including the expression of CD44 and CD24 (D). The adherent MCF7 cells (E) and the MS cells (F) were treated with 5 μM MitoVES, 50 μM α-TOS or 10 μM parthenolide and assessed for their sensitivity to drug induced cell death. […] Adherent MCF7 cells (I) and MS cells (J) were treated for 3 h with α-TOS (50 μM) or MitoVES homologues containing different lengths in the aliphatic side chain (5 μM each, either 11, 7 or 5 carbon chain in length) and the treated cells assessed for production of reactive oxygen species (ROS) by flow cytometry.
Cellular ROS were detected indirectly by flow cytometry and directly by electron paramagnetic resonance (EPR) spectroscopy, following treatment of cells with α-TOS as indicated in the Legend to Figures. […] For indirect evaluation, cells were treated with α-TOS and reacted with dihydrodichlorofluorescein diacetate (DCF; Molecular Probes) for 30 min, and scored by flow cytometry for cells with high fluorescence, which was evaluated on the bases on increase in mean fluorescence intensity. […]

[4] = pH 6.2 versus pH 7.4 of the medium; cited from earlier work
[5] = tested on: breast carcinomas; assay: Spontaneous ductal breast carcinomas in transgenic mice (FIG. 9); format: in vivo, FVB/N c-neu mice
Experimental: The transgenic FVB/N c-neu female mice with spontaneous small breast carcinomas were treated with MitoVES at 3 μmol per mouse per dose and the tumour volume was assessed by repeated ultrasound imaging, monitoring tumour growth over several weeks.
For this purpose, the transgenic FVB/N c-neu mice that form spontaneous ductal breast carcinomas due to high level of expression of the oncogene, HER2 were used as a cancer model.

[6] = tested on: EAhy926 cells; assay: Apoptosis in proliferating and arrested endothelial cells (FIG. 6); format: cell-based, human; settings: EAhy926 at ~50% or 100% confluency
Experimental: Parental EAhy926 cells were seeded in 24-well plate so that they would acquire after an overnight recuperation ˜50% or 100% confluency, while their ρ^0 counterparts were seeded at 50% confluency. The proliferating and confluent cells were then exposed to MitoVES at concentrations and for times shown, and assessed for apoptosis level by the Annexin V-binding method (A) and for ROS accumulation using the fluorescent probe DHE (B).
Toxicity of α-TOS, VE11S (“VES”), MitoVE3S, MitoVE5S, MitoVE7S, MitoVE9S, MitoVE11S (“MitoVES”), MitoVE11AE (“MitoVEAE”), MitoVE11F (“MitoVEF”), MitoVE11M (“MitoVEM”), and VES4TPP towards cancer cells was assessed on the basis of IC50, as detailed in Turanek, J., et al. ((2008). Liposomal formulation of vitamin E analogs as an efficient and selective anti-cancer treatment. Clin. Cancer Res. (submitted)). […]

Structure (SMILES)	concentration needed for comparable levels of effects on endothelial cells [1] [µM]	fold higher percentage in the protonated form ([2]; acidic pH of 6.2-6.4 of the tumour interstitium versus neutral pH)	fraction deprotonated ([2]; at neutral pH) [%]	pKa [2]	pKa ([2]; listed as α-tocopheryl succinate)	ROS production in MS cells [3]	uptake of the compound at lower pH [4]	progression of breast cancer tumours ([5]; 3 μmol per mouse per dose, tumour volume by ultrasound imaging)	toxicity in treated animals ([5]; FVB/N c-neu mice)	fold lower concentrations than needed for corresponding activity of α-TOS ([5]; relative to α-TOS) [fold]	apoptosis in proliferating versus arrested endothelial cells [6]
Cc1c(C)c2c(c(C)c1OC(=O)CCC(=O)O)CC[C@@](C)(CCC[C@H](C)CCC[C@H](C)CCCC(C)C)O2 [α-TOS, α-tocopheryl succinate, reference compound]	25 to 50	10-15 fold	~98	< 6	5.6	much lower levels	about twice as much				
Cc1c(C)c2c(c(C)c1OC(=O)CCC(=O)[O-])CCC(C)(CCCCCCCCCCC[P+](c1ccccc1)(c1ccccc1)c1ccccc1)O2 (centres unmarked) [MitoVE11S]								completely blocked progression	no obvious sign of toxicity	~10	causes apoptosis in proliferating but not arrested endothelial cells
